Test results as given in US20240246950A1, “Anilino-Pyrazole Derivatives, Compositions and Methods Thereof” (Ensem Therapeutics, priority 2022, published 2024).

Legend:
[1] = biological target: CDK1/cyclinB (Homo sapiens, UniProt P06493); assay: In vitro kinase TR-FRET assay CDK1/cyclinB; type: biochemical; conditions: enzyme 0.3 nM, ATP 56 μM
Experimental: (§1) In vitro kinase TR-FRET assays: CDK2/CycA2, CDK2/CycE1, CDK1/cyclinB and GSK3β
(§2) The test compounds were prepared as 10 mM stock solution in 100% DMSO. The stock solution was then serially diluted 3-fold in 100% DMSO to 10 concentrations. 200 nL of each diluted compound solution was transferred to 384-well plate in duplicate. To each well, 5 uL of enzyme and ATP mixture solution containing enzyme CDK2/CycA2, CDK2/CycE1, CDK1/cyclinB, or GSK30 (final concentrations 3 nM, 0.6 nM, 0.3 nM, 0.6 nM, respectively) and ATP (final concentrations 27 μM, 82 μM, 56 μM, 7.6 μM, respectively) in the assay buffer (50 mM HEPES, pH7.5, 10 mM MgCl2, 1 mM DTT, 0.01% BSA, 0.01% Triton X-100). For negative control, 5 uL of assay buffer was added instead. The plate was incubated at room temperature for 10 min. 5 uL of peptide solution containing ULight-4E-BP1 peptide (final concentrations 50 nM) in the assay buffer was subsequently added into each well to initiate the reaction. By incubation at room temperature for 1 hour, 10 uL of 2 nM Eu-anti-phospho-4E BP1 antibody was then added for detection. After one hour incubation at room temperature, all samples were subjected to read the TR-FRET signal on Envision with excitation at 340 nm and emission fluorescence at 615 nm and 665 nm. IC50 values were then calculated by plotting dose-response curves and then using the XLfit application in Excel software.

[2] = biological target: CDK2/CycA2 (Homo sapiens, UniProt P24941); assay: In vitro kinase TR-FRET assay CDK2/CycA2; type: biochemical; conditions: enzyme 3 nM, ATP 27 μM, read-out: CDK2 cyclinA2 activity assay: IC50
Experimental: as §1, §2

[3] = biological target: CDK2/CycE1 (Homo sapiens, UniProt P24941); assay: In vitro kinase TR-FRET assay CDK2/CycE1; type: biochemical; conditions: enzyme 0.6 nM, ATP 82 μM, read-out: CDK2 cyclinE1 activity assay: IC50
Experimental: as §1, §2

[4] = biological target: GSK3β (Homo sapiens, UniProt P49841); assay: In vitro kinase TR-FRET assay GSK3β; type: biochemical; conditions: enzyme 0.6 nM, ATP 7.6 μM
GSK3β, sequence (P49841 whole entry, species assumed): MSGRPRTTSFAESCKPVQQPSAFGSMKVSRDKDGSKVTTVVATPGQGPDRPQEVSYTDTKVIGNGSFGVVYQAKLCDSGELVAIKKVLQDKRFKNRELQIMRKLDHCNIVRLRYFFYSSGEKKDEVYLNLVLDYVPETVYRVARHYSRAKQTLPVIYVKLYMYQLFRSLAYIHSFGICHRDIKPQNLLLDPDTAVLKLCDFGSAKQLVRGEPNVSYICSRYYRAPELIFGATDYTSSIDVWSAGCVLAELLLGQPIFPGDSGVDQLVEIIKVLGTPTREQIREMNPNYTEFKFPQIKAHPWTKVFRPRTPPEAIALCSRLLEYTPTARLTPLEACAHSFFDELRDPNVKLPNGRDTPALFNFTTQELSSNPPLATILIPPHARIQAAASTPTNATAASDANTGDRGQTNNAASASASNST
Experimental: as §1, §2

[5] = system: OVCAR3; assay: Cell proliferation (CyQUANT) OVCAR3; type: cell-based; conditions: Homo sapiens, OVCAR-3, 168 h, OVCAR3, 7 days, read-out: Anti-proliferation assay: IC50 (nM) [Cell Line: OVCAR3]
Experimental: (§3) Cancer cell lines, namely, OVCAR3, TOV21G were seeded onto 96 well cell culture plates at a density of 2500, 1000 or 3000 cells/well, respectively and cultured overnight. Cells treated with test compounds at 3-fold dose titration for 7 days at maximum final DMSO concentration of 0.01%. The CyQUANT® Cell Proliferation Assay, a highly sensitive fluorescence-based method for quantifying cells and assessing cell proliferation and cytotoxicity was employed, following manufacturer's procedure (ThermnoFisher, Cataloge #C35012). Plates were scanned with a laser-based Acumen Cellistra instrument by TTP LabTech at Ex/Em 480/520 nm. % Inhibition is calculated based on DMSO control wells on the same plate (ie, DMSO wells have 100% growth and 0% growth inhibition).

[6] = system: TOV21G; assay: Cell proliferation (CyQUANT) TOV21G; type: cell-based; conditions: Homo sapiens, 168 h, 7 days, read-out: Anti-proliferation assay: IC50 (nM) [Cell Line: TOV21G]
Experimental: as §3

CDK1/cyclinB, sequence (P06493 whole entry): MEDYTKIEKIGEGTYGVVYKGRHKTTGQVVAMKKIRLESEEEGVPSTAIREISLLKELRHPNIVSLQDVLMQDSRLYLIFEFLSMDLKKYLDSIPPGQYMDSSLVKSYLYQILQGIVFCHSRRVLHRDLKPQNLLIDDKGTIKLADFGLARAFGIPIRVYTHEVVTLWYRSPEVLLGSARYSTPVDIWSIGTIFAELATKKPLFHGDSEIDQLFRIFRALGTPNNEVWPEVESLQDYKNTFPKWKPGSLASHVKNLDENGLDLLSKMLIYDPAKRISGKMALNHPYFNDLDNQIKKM
CDK1/cyclinB, sequence (P14635 whole entry partner): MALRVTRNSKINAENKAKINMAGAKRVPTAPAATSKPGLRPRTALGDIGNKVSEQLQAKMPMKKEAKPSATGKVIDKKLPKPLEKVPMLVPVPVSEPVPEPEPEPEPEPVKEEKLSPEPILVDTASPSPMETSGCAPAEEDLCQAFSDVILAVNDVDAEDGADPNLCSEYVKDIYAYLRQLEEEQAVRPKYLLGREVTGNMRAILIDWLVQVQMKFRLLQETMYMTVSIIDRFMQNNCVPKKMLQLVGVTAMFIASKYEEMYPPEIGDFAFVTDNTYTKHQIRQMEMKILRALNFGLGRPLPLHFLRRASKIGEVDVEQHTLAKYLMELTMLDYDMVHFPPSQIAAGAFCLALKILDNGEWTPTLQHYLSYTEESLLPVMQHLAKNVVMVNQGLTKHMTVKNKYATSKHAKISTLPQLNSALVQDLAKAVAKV

IC50 [1]	IC50 [2]	IC50 [3]	IC50 [4]	IC50 [5]	SMILES	IC50 [6]
0.05 to 0.5 µM	< 0.05 µM	< 0.05 µM	0.05 to 0.5 µM	≤ 500 nM	CC(C)NC(=O)OC1CCC(c2cc(Nc3ccc4c(c3)CN(C)S4(=O)=O)[nH]n2)C1 (racemic) [Example 23, 3-(5-((2-methyl-1,1-dioxido-2,3-dihydrobenzo[d]isothiazol-5-yl)amino)-1H-pyrazol-3-yl)cyclopentyl isopropylcarbamate]	≥ 1000 nM
> 1 µM	0.5 to 1 µM	0.05 to 0.5 µM	> 1 µM		Cc1c([C@@H]2CC[C@H](OC(=O)NC(C)C)C2)n[nH]c1Nc1ccc2c(c1)CCS2(=O)=O (racemic) [Example 24, cis 3-{5-[(1,1-dioxo-2,3-dihydro-1λ6-benzothiophen-5-yl)amino]-4-methyl-1H-pyrazol-3-yl}cyclopentyl (prop-2-ylamino)methanoate]	
0.05 to 0.5 µM	< 0.05 µM	< 0.05 µM	0.05 to 0.5 µM	500 to 1000 nM	CC(C)NC(=O)O[C@@H]1CC[C@H](c2cc(Nc3ccc4c(c3)C(=O)NC4=O)n[nH]2)C1 [Example 4, (1R,3S)-3-(3-((1,3-dioxoisoindolin-5-yl)amino)-1H-pyrazol-5-yl)cyclopentyl isopropylcarbamate]	≥ 1000 nM
> 1 µM	< 0.05 µM	< 0.05 µM	0.5 to 1 µM	≥ 1000 nM	CC(C)NC(=O)O[C@@H]1CC[C@H](c2cc(Nc3ccc4c(c3)C(=O)NS4(=O)=O)[nH]n2)C1 [Example 5, (1R,3S)-3-(5-((1,1-dioxido-3-oxo-2,3-dihydrobenzo[d]isothiazol-5-yl)amino)-1H-pyrazol-3-yl)cyclopentyl isopropylcarbamate]	≥ 1000 nM
0.05 to 0.5 µM	< 0.05 µM	< 0.05 µM	0.05 to 0.5 µM		CC(C)NC(=O)O[C@@H]1CC[C@H](c2cc(Nc3ccc4c(c3)C(C)(C)NS4(=O)=O)n[nH]2)C1 [Example 13, (1R,3S)-3-(3-((3,3-dimethyl-1,1-dioxido-2,3-dihydrobenzo[d]isothiazol-5-yl)amino)-1H-pyrazol-5-yl)cyclopentyl isopropylcarbamate]	
0.05 to 0.5 µM	< 0.05 µM	< 0.05 µM	> 1 µM		CC(C)NC(=O)O[C@@H]1CC[C@H](c2[nH]nc(Nc3ccc4c(c3)CNS4(=O)=O)c2F)C1 [Example 14, (1R,3S)-3-(3-((1,1-dioxido-2,3-dihydrobenzo[d]isothiazol-5-yl)amino)-4-fluoro-1H-pyrazol-5-yl)cyclopentyl isopropylcarbamate]	
0.5 to 1 µM	< 0.05 µM	< 0.05 µM	0.05 to 0.5 µM		CC(C)NC(=O)O[C@@H]1CC[C@H](c2cc(Nc3ccc4c(c3)N(C)C(=O)NS4(=O)=O)n[nH]2)C1 [Example 18, (1R,3S)-3-(3-((4-methyl-1,1-dioxido-3-oxo-3,4-dihydro-2H-benzo[e][1,2,4]thiadiazin-6-yl)amino)-1H-pyrazol-5-yl)cyclopentyl isopropylcarbamate]	
0.5 to 1 µM	< 0.05 µM	< 0.05 µM	> 1 µM		CC(C)NC(=O)O[C@@H]1CC[C@H](c2cc(Nc3ccc4c(c3)C(=O)NC4)n[nH]2)C1 [Example 20, (1R,3S)-3-{5-[(3-oxo-2,3-dihydro-1H-isoindol-5-yl)amino]-2H-pyrazol-3-yl}cyclopentyl (prop-2-ylamino)methanoate]	
> 1 µM	> 1 µM	> 1 µM	> 1 µM		CC(C)NC(=O)O[C@@H]1CC[C@H](c2cc(Nc3cccc4c3S(=O)(=O)CC4)n[nH]2)C1 [Example 35, (1R,3S)-3-{5-[(1,1-dioxo-2,3-dihydro-1λ6-benzo[2,1-b]thiophen-7-yl)amino]-2H-pyrazol-3-yl}cyclopentyl (prop-2-ylamino)methanoate]	
0.05 to 0.5 µM	< 0.05 µM	< 0.05 µM	0.05 to 0.5 µM		CC(C)NC(=O)O[C@@H]1CC[C@H](c2cc(Nc3ccc4c(c3)S(=O)(=O)CCC4)n[nH]2)C1 [Example 39, (1R,3S)-3-(3-((1,1-dioxidothiochroman-7-yl)amino)-1H-pyrazol-5-yl)cyclopentyl isopropylcarbamate]	
> 1 µM	0.05 to 0.5 µM	0.05 to 0.5 µM	> 1 µM		Cc1c(Nc2ccc3c(c2)CS(=O)(=O)C3)n[nH]c1[C@H]1CC[C@@H](OC(=O)NC(C)C)C1 [Example 43, (1R,3S)-3-{5-[(2,2-dioxo-1,3-dihydro-2λ^6-benzo[c]thiophen-5-yl)amino]-4-methyl-2H-pyrazol-3-yl}cyclopentyl (prop-2-ylamino)methanoate]	
> 1 µM	0.05 to 0.5 µM	0.05 to 0.5 µM	> 1 µM		Cc1c(Nc2ccc3c(c2)CS(=O)(=O)C3)n[nH]c1[C@H]1CC[C@@H](OC(=O)NC(C)(C)C)C1 [Example 44, (1R,3S)-3-{5-[(2,2-dioxo-1,3-dihydro-2%6-benzo[c]thiophen-5-yl)amino]-4-methyl-2H-pyrazol-3-yl}cyclopentyl [(2-methylprop-2-yl)amino]methanoate]	
> 1 µM	0.05 to 0.5 µM	0.05 to 0.5 µM	> 1 µM		CC(C)NC(=O)O[C@@H]1CC[C@H](c2cc(Nc3cccc4c3CS(=O)(=O)N4)n[nH]2)C1 [Example 48, (1R,3S)-3-(3-((2,2-dioxido-1,3-dihydrobenzo[c]isothiazol-4-yl)amino)-1H-pyrazol-5-yl)cyclopentyl isopropylcarbamate]	
0.05 to 0.5 µM	0.5 to 1 µM	0.05 to 0.5 µM	> 1 µM		CC(C)NC(=O)O[C@@H]1CC[C@H](c2cc(Nc3cccc4c3N(C)S(=O)(=O)C4)n[nH]2)C1 [Example 51, (1R,3S)-3-{5-[(1-methyl-2,2-dioxo-1,3-dihydro-2λ^6-benzo[2,1-c][1,2]thiazol-7-yl)amino]-2H-pyrazol-3-yl}cyclopentyl (prop-2-ylamino)methanoate]	
> 1 µM	0.05 to 0.5 µM	< 0.05 µM	> 1 µM		CC(C)NC(=O)O[C@@H]1CC[C@H](c2cc(Nc3c(F)ccc4c3CCS4(=O)=O)n[nH]2)C1 [Example 52, (1R,3S)-3-(3-((5-fluoro-1,1-dioxido-2,3-dihydrobenzo[b]thiophen-4-yl)amino)-1H-pyrazol-5-yl)cyclopentyl isopropylcarbamate]	
0.5 to 1 µM	< 0.05 µM	< 0.05 µM	> 1 µM		CC(C)NC(=O)O[C@@H]1CC[C@H](c2cc(Nc3cccc4c3CCS(=O)(=O)N4)n[nH]2)C1 [Example 53, (1R,3S)-3-(3-((2,2-dioxido-3,4-dihydro-1H-benzo[c][1,2]thiazin-5-yl)amino)-1H-pyrazol-5-yl)cyclopentyl isopropylcarbamate]	
> 1 µM	< 0.05 µM	< 0.05 µM	> 1 µM		CC(C)NC(=O)O[C@@H]1CC[C@H](c2cc(Nc3cc4c(cc3F)S(=O)(=O)CC4)n[nH]2)C1 [Example 54, (1R,3S)-3-(3-((6-fluoro-1,1-dioxido-2,3-dihydrobenzo[b]thiophen-5-yl)amino)-1H-pyrazol-5-yl)cyclopentyl isopropylcarbamate]	
0.05 to 0.5 µM	< 0.05 µM	< 0.05 µM	0.05 to 0.5 µM		O=C(NC1CC1)O[C@@H]1CC[C@H](c2cc(Nc3nccc4c3CCS4(=O)=O)n[nH]2)C1 [Example 71, (1R,3S)-3-{5-[(1,1-dioxo-2,3-dihydro-1λ^6-thieno[3,2-c]pyridin-4-yl)amino]-2H-pyrazol-3-yl}cyclopentyl (cyclopropylamino)methanoate]	
< 0.05 µM	< 0.05 µM	< 0.05 µM	> 1 µM		CC(C)NC(=O)O[C@@H]1CC[C@H](c2cc(Nc3cc4c(cn3)CCS4(=O)=O)n[nH]2)C1 [Example 72, (1R,3S)-3-{5-[(1,1-dioxo-2,3-dihydro-1λ^6-thieno[3,2-c]pyridin-6-yl)amino]-1H-pyrazol-3-yl}cyclopentyl (prop-2-ylamino)methanoate]	
